Measurements taken from patent US10369145B2, “Coumarin derivatives and methods of use in treating hyperproliferative diseases” (DISCOVERYBIOMED, INC., priority 2013, dated 2019).

Assays:
CCRF-CEM = test: NCI 60 panel: CCRF-CEM (Leukemia); format: cell-based
From the text: (§5) TGI means the drug concentration resulting in total growth inhibition or “cytostasis.” LC50 is the concentration of drug resulting in a 50% reduction in the measured cytosolic ATP at the end of the drug treatment as compared to that at the beginning, indicating a net loss of cells following treatment (cytotoxicity).

K-562 = test: NCI 60 panel: K-562 (Leukemia); format: cell-based
From the text: as §5

MOLT-4 = test: NCI 60 panel: MOLT-4 (Leukemia); format: cell-based
From the text: as §5

RPMI-8226 = test: NCI 60 panel: RPMI-8226 (Leukemia); format: cell-based
From the text: as §5

NCI-H226 = test: NCI 60 panel: NCI-H226 (Non-Small Cell Lung Cancer); format: cell-based
From the text: as §5

NCI-H322M = test: NCI 60 panel: NCI-H322M (Non-Small Cell Lung Cancer); format: cell-based
From the text: as §5

NCI-H522 = test: NCI 60 panel: NCI-H522 (Non-Small Cell Lung Cancer); format: cell-based
From the text: as §5

SF-539 = test: NCI 60 panel: SF-539 (CNS Cancer); format: cell-based
From the text: as §5

U251 = test: NCI 60 panel: U251 (CNS Cancer); format: cell-based
From the text: as §5

UACC-257 = test: NCI 60 panel: UACC-257 (Melanoma); format: cell-based
From the text: as §5

UACC-62 = test: NCI 60 panel: UACC-62 (Melanoma); format: cell-based
From the text: as §5

OVCAR-8 = test: NCI 60 panel: OVCAR-8 (Ovarian Cancer); format: cell-based
From the text: as §5

TK-10 = test: NCI 60 panel: TK-10 (Renal Cancer); format: cell-based
From the text: as §5

PC-3 = test: NCI 60 panel: PC-3 (Prostate Cancer); format: cell-based
From the text: as §5

MCF7 = test: NCI 60 panel: MCF7 (Breast Cancer); format: cell-based
From the text: as §5

ARH-77 = test: Complementary DBM in vitro profiling: ARH-77 (Hematologic Cancer); format: cell-based
Method: (§1) The compounds described herein are effective for inhibiting cellular proliferation in hyperproliferative cell types. To study the effects of these compounds, an assay was developed to differentiate the effects of the compounds on proliferating versus confluent cells. The assay design generates a proliferating density 24 hours after seeding and provides a 3-day active cell growth/doubling window in which to gauge the anti-proliferative effect of the compounds described herein. […] In this 3-day growth window, cell number increases with daily doublings across the 72-hour period (see FIG. 1).
(§2) In each assay design, compounds were added at the 24-hour timepoint after cell seeding. The effect of the compounds, relative to vehicle control and to VelCade (a proteasome inhibitor approved in the U.S. for treating relapsed multiple myeloma and mantle cell lymphoma) as a positive control, was assessed across the 3-day growth window for proliferating cells and on an already near confluent culture of cells for the same time period. Normal cells were handled in the same manner, with some adjustment of seeding density needed in select cases. […]
(§3) Cell number at the end of the assay was determined using the CELLTITER-GLO Luminescent Cell Viability Assay (Promega; Madison, Wis.). The CELLTITER-GLO Luminescent Cell Viability Assay is a homogeneous method of determining the number of viable cells in culture based on quantitation of the ATP present, an indicator of metabolically active cells. IC50 values were calculated. […]
(§4) For a typical screening experiment to identify the compounds, cells were seeded into 96- or 384-well microtiter plates at plating densities pre-determined for each cell line to ensure drug exposure occurs during the proliferative phase well before confluency is reached. […] Values were calculated for each of these three parameters if the level of activity was reached; however, if the effect was not reached or was exceeded, the value for that parameter was expressed as greater or less than the maximum or minimum concentration tested.

SK-OV-3 = test: Complementary DBM in vitro profiling: SK-OV-3 (Ovarian Cancer); format: cell-based
Method: as §1, §2, §3, §4

NCI-60 cell panel = test: NCI-60 cell panel, whole panel; format: cell-based, human; details: average in the NCI-60 cell panel
myeloma cells = format: cell-based
Method: as §4, with “reached. After seeding, cells were incubated for 24 h prior to addition of experimental drugs. After 24 h, a test plate was assayed (CellTiterGlo—measurement of cytosolic ATP) to determine a baseline measurement of the cell population for each cell line at the time of drug addition. Experimental drugs were then added and cells were cultured for a 48 h drug exposure window.” for “reached.”

[1] = system: hyperproliferative PKD cells (cloned polycystic kidney tissue cells); test: Concentration-response in primary cultures cloned from cystic kidney tissue; format: cell-based; details: hyperproliferative PKD cells, 72 hour treatment
Method: The concentration-response effects of Compound DBM 228, Compound DBM 308, Compound DBM 101, and Compound DBM 328 were determined in primary cultures derived as ‘clones’ from cystic versus non-cystic kidney tissue. CRC graphs, IC50 values, and the percent maximum inhibition versus lowest doses without effect were calculated with GraphPad Prism software. […] There was also a marked separation in effect between hyperproliferative PKD cells (FIG. 5A and Table 3) and WT cells (FIG. 5B and Table 4).

[2] = system: primary human ADPKD cystic epithelial cell lines, ARCaP-M, CAKI-1; test: Viability in cystic ADPKD cells, prostate and kidney cancer lines; format: cell-based
Method: as §1
In each assay design, compounds were added at the 24-hour timepoint after cell seeding. The effect of the compounds, relative to vehicle control and to VelCade (a proteasome inhibitor approved in the U.S. for treating relapsed multiple myeloma and mantle cell lymphoma) as a positive control, was assessed across the 3-day growth window for proliferating cells and on an already near confluent culture of cells for the same time period. Normal cells were handled in the same manner, with some adjustment of seeding density needed in select cases. This assay design holds for the data series presented below.
Cell number at the end of the assay was determined using the CELLTITER-GLO Luminescent Cell Viability Assay (Promega; Madison, Wis.). The CELLTITER-GLO Luminescent Cell Viability Assay is a homogeneous method of determining the number of viable cells in culture based on quantitation of the ATP present, an indicator of metabolically active cells. IC50 values were calculated. Cell number (number of cells per well) was converted to the % of DMSO matched controls. Each measurement was performed in triplicate. Typical dosage ranges tested were from 250 picomolar to 50 micromolar.
The compounds as described herein were tested on primary human ADPKD cystic epithelial cell lines as well as two common cancer cell lines from the prostate (ARCaP-M) and kidney (CAKI-1).

[3] = read-out: LC50 (the source's name)
[4] = myeloma cells, 48 h drug exposure

## COc1ccccc1Nc1nc(-c2cc3cccc(N)c3oc2=O)cs1 [Compound DBM 228]
CCRF-CEM
  GI50: 0.177 µM
  LC50 (50% lethal concentration): > 100 µM
  TGI: 15.4 µM
K-562
  GI50: 0.043 µM
  TGI: 16.1 µM
K-562; [3]
  CC50: > 100 µM
MOLT-4
  GI50: 0.168 µM
  TGI: 17.8 µM
MOLT-4; [3]
  CC50: > 100 µM
RPMI-8226
  GI50: 0.238 µM
  TGI: 43.9 µM
RPMI-8226; [3]
  CC50: > 100 µM
NCI-H226
  GI50: 11.2 µM
  TGI: 37.2 µM
NCI-H226; [3]
  CC50: > 100 µM
NCI-H322M
  GI50: 0.672 µM
  TGI: 25.9 µM
NCI-H322M; [3]
  CC50: 93.3 µM
NCI-H522
  GI50: 0.0247 µM
  TGI: 0.094 µM
NCI-H522; [3]
  CC50: > 100 µM
SF-539
  GI50: 0.109 µM
  TGI: 0.85 µM
SF-539; [3]
  CC50: 29.8 µM
U251
  GI50: 0.0468 µM
  TGI: 10.6 µM
U251; [3]
  CC50: 35.7 µM
UACC-257
  TGI: 33.7 µM
UACC-257; [3]
  CC50: > 100 µM
UACC-62
  GI50: 0.0511 µM
  LC50 (lethal concentration, 50% net cell kill): > 100 µM
  TGI: 28.2 µM
OVCAR-8
  GI50: 0.31 µM
  TGI: 13.2 µM
OVCAR-8; [3]
  CC50: > 100 µM
TK-10
  GI50: 10 µM
  TGI: 23.5 µM
TK-10; [3]
  CC50: 55 µM
PC-3
  GI50: 0.27 µM
  TGI: 36 µM
PC-3; [3]
  CC50: > 100 µM
MCF7
  GI50: 0.0545 µM
  TGI: >100 µM
MCF7; [3]
  CC50: > 100 µM
ARH-77
  GI50: 0.154 µM
  TGI: 0.339 µM
ARH-77; [3]
  CC50: > 30 µM
SK-OV-3
  GI50: 0.845 µM
  TGI: >30 µM
SK-OV-3; [3]
  CC50: > 30 µM
NCI-60 cell panel
  GI50: 0.25 µM
Myeloma cells
  CC50: > 4 µM
Myeloma cells; [4]
  GI50: 0.16 µM
  TGI: 0.271 µM
[1]
  IC50: 0.69 µM
  Max inhibition: 61%
[2]; at and around the 1 micromolar dose
  effect on cells, in words: cytostatic plateau
[2]; higher mid-micromolar concentrations
  effect on cells, in words: cytotoxic effect
[2]; nanomolar ranges, 12-point CRC
  effect on cells, in words: growth arrested but not killed
